# From ChEMBL document CHEMBL1201862, “PubChem BioAssay data set” (2004)
#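 Growth conditions: 96-well plates. Treatment: test compound, 48 hours, 5 concentrations. Analysis: linear interpolation between bracketing concentrations; unreached endpoints set to highest concentration. GI50 = concentration required for 50% inhibition of growth.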 Calls of active or inactive are those of the source. No stated cut-off is given here; in the data, active = GI50 up to about 1.1 µM and inactive = higher.
# Key:
# Assay in all cases: DTP human tumour cell line panel, 48 h
# ACHN = tested on: ACHN
# HOP-92 = tested on: HOP-92
# SNB-75 = tested on: SNB-75
# UACC-62 = tested on: UACC-62
# UO-31 = tested on: UO-31
# LOX IMVI = tested on: LOX IMVI
# SK-MEL-28 = tested on: SK-MEL-28
# SNB-19 = tested on: SNB-19
# K562 = tested on: K562
# SF-295 = tested on: SF-295
# MOLT-4 = tested on: MOLT-4
# SK-MEL-5 = tested on: SK-MEL-5
# NCI-H460 = tested on: NCI-H460
# EKVX = tested on: EKVX
# HOP-62 = tested on: HOP-62
# HCT-116 = tested on: HCT-116
SMILES,GI50 (ACHN),GI50 (HOP-92),GI50 (SNB-75),GI50 (UACC-62),GI50 (UO-31),GI50 (LOX IMVI),GI50 (SK-MEL-28),GI50 (SNB-19),GI50 (K562),GI50 (SF-295),GI50 (MOLT-4),GI50 (SK-MEL-5),GI50 (NCI-H460),GI50 (EKVX),GI50 (HOP-62),GI50 (HCT-116)
C=CCC(OCCOCC)c1cc(OCCOCC)ccc1OC (stereo not drawn),> 100 µM (inactive),> 100 µM (inactive),> 100 µM (inactive),> 100 µM (inactive),> 100 µM (inactive),> 100 µM (inactive),> 100 µM (inactive),> 100 µM (inactive),> 100 µM (inactive),> 100 µM (inactive),> 100 µM (inactive),> 100 µM (inactive),> 100 µM (inactive),> 100 µM (inactive),> 100 µM (inactive),
CCOc1ccc(NCC2CC/C(=C\c3ccccc3OC)C2=O)cc1 (stereo not drawn),14.6 µM (inactive),19.5 µM (inactive),14.6 µM (inactive),11.8 µM (inactive),13.4 µM (inactive),6.61 µM (inactive),11 µM (inactive),15.9 µM (inactive),2.7 µM (inactive),18 µM (inactive),2.75 µM (inactive),16.1 µM (inactive),,17.4 µM (inactive),27.4 µM (inactive),4.33 µM (inactive)
[O-][S+]1c2ccccc2N=C(c2cccc3ccccc23)CC1c1cccc2ccccc12 (stereo not drawn),23.1 µM (inactive),,23.1 µM (inactive),12.6 µM (inactive),23.9 µM (inactive),13.6 µM (inactive),0.91 µM (active),21 µM (inactive),30.8 µM (inactive),32.1 µM (inactive),20.3 µM (inactive),5.52 µM (inactive),15 µM (inactive),21.4 µM (inactive),34.2 µM (inactive),17.3 µM (inactive)
O=C1[C@H]2ON(c3ccccc3)C(c3ccc(Cl)cc3)[C@H]2C(=O)N1c1ccc(Cc2ccc(N3C(=O)[C@@H]4ON(c5ccccc5)C(c5ccc(Cl)cc5)[C@@H]4C3=O)cc2)cc1 (stereo partly drawn),> 100 µM (inactive),,> 100 µM (inactive),> 100 µM (inactive),> 100 µM (inactive),> 100 µM (inactive),> 100 µM (inactive),> 100 µM (inactive),> 100 µM (inactive),> 100 µM (inactive),> 100 µM (inactive),61.7 µM (inactive),> 100 µM (inactive),> 100 µM (inactive),> 100 µM (inactive),> 100 µM (inactive)
O=c1[nH]c(=O)n(C2CC(O)C(CO)O2)cc1C#Cc1cc(F)cc(F)c1 (stereo not drawn),> 100 µM (inactive),,48.9 µM (inactive),> 100 µM (inactive),> 100 µM (inactive),> 100 µM (inactive),> 100 µM (inactive),> 100 µM (inactive),> 100 µM (inactive),> 100 µM (inactive),> 100 µM (inactive),> 100 µM (inactive),> 100 µM (inactive),> 100 µM (inactive),> 100 µM (inactive),
COc1ccc2cc1Oc1ccc(cc1)CC1c3cc4c(cc3CCN1C)Oc1c(OC)cc3c(c1O4)C(C2)N(C)CC3 (stereo not drawn),4.78 µM (inactive),,2.56 µM (inactive),3.21 µM (inactive),,1.46 µM (inactive),1.49 µM (inactive),3.86 µM (inactive),1.75 µM (inactive),1.98 µM (inactive),1.44 µM (inactive),8.57 µM (inactive),1.76 µM (inactive),9.79 µM (inactive),12.6 µM (inactive),1.7 µM (inactive)
O=C(OCc1nc2ccc(Br)cc2c(=O)n1-c1ccccc1)c1ccccc1O,70.5 µM (inactive),> 100 µM (inactive),28.4 µM (inactive),> 100 µM (inactive),29.8 µM (inactive),> 100 µM (inactive),> 100 µM (inactive),,54.7 µM (inactive),> 100 µM (inactive),37.9 µM (inactive),18.1 µM (inactive),> 100 µM (inactive),66.1 µM (inactive),> 100 µM (inactive),> 100 µM (inactive)
N#Cc1c(-c2ccco2)cc(-c2ccc(NCc3nc4ccccc4[nH]3)cc2)nc1N,26.5 µM (inactive),21.4 µM (inactive),26.4 µM (inactive),16.6 µM (inactive),16.6 µM (inactive),18.7 µM (inactive),27.5 µM (inactive),20.5 µM (inactive),24.3 µM (inactive),19.5 µM (inactive),15.3 µM (inactive),16 µM (inactive),18.1 µM (inactive),,26.7 µM (inactive),18.9 µM (inactive)
COC(=O)c1nc(C(=O)OC)c2c([nH]c3ccccc32)c1C(=O)OC,,> 100 µM (inactive),41.5 µM (inactive),85.1 µM (inactive),21.3 µM (inactive),58.5 µM (inactive),88.9 µM (inactive),,,91.4 µM (inactive),82.6 µM (inactive),9.79 µM (inactive),46.1 µM (inactive),,> 100 µM (inactive),> 100 µM (inactive)
C1CN2CCO[SiH](O1)OCC2,> 100 µM (inactive),,> 100 µM (inactive),> 100 µM (inactive),> 100 µM (inactive),,> 100 µM (inactive),> 100 µM (inactive),> 100 µM (inactive),> 100 µM (inactive),> 100 µM (inactive),> 100 µM (inactive),> 100 µM (inactive),> 100 µM (inactive),,> 100 µM (inactive)
[O-][S+]1Cc2ccccc2CS1 (stereo not drawn),18.8 µM (inactive),14 µM (inactive),20.3 µM (inactive),13.2 µM (inactive),21.4 µM (inactive),7.46 µM (inactive),14.9 µM (inactive),> 100 µM (inactive),17.9 µM (inactive),31.6 µM (inactive),15.4 µM (inactive),43.2 µM (inactive),22.7 µM (inactive),22.9 µM (inactive),,20.5 µM (inactive)
CS(=O)(=O)c1c(N)c2nc(Cl)cn2c2nc3ccccc3nc12,> 100 µM (inactive),,81.3 µM (inactive),> 100 µM (inactive),> 100 µM (inactive),> 100 µM (inactive),> 100 µM (inactive),> 100 µM (inactive),> 100 µM (inactive),> 100 µM (inactive),> 100 µM (inactive),> 100 µM (inactive),> 100 µM (inactive),> 100 µM (inactive),> 100 µM (inactive),> 100 µM (inactive)
COc1ccc(/C=C2\CCC(CCN(C)C)(C3=CCCC3)C2=O)cc1Br (stereo not drawn),9.29 µM (inactive),2.97 µM (inactive),4.49 µM (inactive),,5.35 µM (inactive),4.06 µM (inactive),2.76 µM (inactive),9.44 µM (inactive),2.58 µM (inactive),3.85 µM (inactive),2.7 µM (inactive),1.71 µM (inactive),10.1 µM (inactive),0.0306 µM (active),14.5 µM (inactive),3.46 µM (inactive)
